Data set [1] deals with BJ, B16-F10, T47D, T47Dp53 and HeLa cells. The data set can be described thus: Cell cycle assay (propidium iodide flow cytometry), cell line panel. Format: cell-based. The following applies: 150 nM oligomeric compound, 4.5 μg/ml LIPOFECTIN, after 72 hours, propidium iodide flow cytometry. A general note: A flow cytometer gives signals particle by particle.
For another data set, the system named is Glut4. Nature of the data set: Glut4 mRNA expression in adipocytes (real-time PCR). Type of data set: cell-based, human. The following applies: differentiating adipocytes transfected with oligomeric compound; Table 75. A general note: In qPCR the cycle at which signal appears reflects the starting amount.
Another data set has as its system HSL. Nature of the data set: HSL mRNA expression in adipocytes (real-time PCR). Format: cell-based, human. The following applies: differentiating adipocytes transfected with oligomeric compound; Table 75.
The test system of another data set is aP2. The data set can be described thus: aP2 mRNA expression in adipocytes (real-time PCR). Type of data set: cell-based, human. To be noted: differentiating adipocytes transfected with oligomeric compound; Table 75.
A further data set has as its system adipocytes. The data set can be described thus: Triglyceride accumulation assay in adipocytes. To be noted: differentiating adipocytes transfected with oligomeric compound; Table 75. Type of data set: cell-based, human.
Another data set concerns PPARγ. The data set can be described thus: PPARγ mRNA expression in adipocytes (real-time PCR). Format: cell-based, human. The following applies: differentiating adipocytes transfected with oligomeric compound; Table 75.
For the next data set, the system named is HeLa cells. Nature of the data set: Cell cycle assay in HeLa cells. Format: cell-based, human. To be noted: HeLa cells, 150 nM oligomeric compound.
[2] abbreviates: 24 hours, relative to untreated control (UTC = 100).
[3] abbreviates: 48 hours after treatment, relative to untreated control (UTC=100).

e = 2'-O-(2-methoxyethyl) (MOE); d = 2'-deoxy (DNA)

In the case of “340348 (antisense CTACCTGCACGAACAGCACTTT; all 2'-MOE, all phosphorothioate, methylation of C not given here) [compound 340348]”, in data set [1], the “G1 (percentage of cells in phase of the cell cycle)” value is 53.9%, the “G2/M (percentage of cells in phase of the cell cycle)” value is recorded as 14.3%, the “S (percentage of cells in phase of the cell cycle)” value amounted to 31.8% and the “SubG1 (percentage of cells in phase of the cell cycle)” value was determined as 14.1%. The “aneuploid (percentage of cells)” value in data set [1] is on record as 12.3%. Also, in the data set with Glut4, the “GLUT4 mRNA” value is on record as 52 percentage of untreated control (UTC). Besides, the “HSL mRNA” value in the data set on HSL was 57 percentage of untreated control (UTC). Besides, the “aP2 mRNA” value in the data set on aP2 is 68 percentage of untreated control (UTC). Besides, the “TG (triglyceride accumulation)” value in the data set on adipocytes is 48 percentage of untreated control (UTC). Further, in the data set with PPARγ, the “PPAR gamma mRNA” value is listed as 78 percentage of untreated control (UTC).

Take “340365 (antisense TACTTTATATAGAACACAAG; sugars from the 5' end e5 d10 e5, all phosphorothioate, methylation of C not given here) [compound 340365]”: in data set [1], the “G1 (percentage of cells in phase of the cell cycle)” value is on record as 55.2%, the “G2/M (percentage of cells in phase of the cell cycle)” value is 15.4%, the “S (percentage of cells in phase of the cell cycle)” value is listed as 29.4% and the “SubG1 (percentage of cells in phase of the cell cycle)” value is 4.3%. Besides, the “aneuploid (percentage of cells)” value in data set [1] is given as 18.3%. In the data set with HeLa cells (setting [2]), the “% cells aneuploid” value was 84%, the “% cells in cell cycle phase G1” value is 125%, the “% cells in cell cycle phase G2/M” value came out at 114% and the “% cells in cell cycle phase S” value is given as 71%. Moreover, the “% cells in cell cycle phase subG1” value in the data set with HeLa cells (setting [2]) was 109%. Also, in the data set with HeLa cells (setting [3]), the “% cells in cell cycle phase: G1” value was found to be 99%, the “% cells in cell cycle phase: G2/M” value was determined as 109%, the “% cells in cell cycle phase: S” value amounted to 94% and the “% cells in cell cycle phase: aneuploid” value was 129%. Further, the “% cells in cell cycle phase: subG1” value in the data set on HeLa cells (setting [3]) was 71%.

Values taken from patent US8178506B2, “Oligomeric compounds and compositions for use in modulation of small non-coding RNAs” (Regulus Therapeutics Inc., priority 2003, dated 2012).
